A word on the melting point: it is the temperature, or range, at which the solid turns liquid. A word on the pKi: it is the Ki on a negative log10 scale, so that one unit is a factor of ten. Read a low pKi as a large Ki. For orientation: pIC50 means −log10 of the IC50, conventionally taken in molar units.

pIC50, pKi: −log10 of the molar value.

We go through eight molecules from US6656947B2, “Antidepressant azaheterocyclylmethyl derivatives of 2,3-dihydro-1,4-dioxino[2,3-f]quinazoline” (Wyeth, priority 2001, dated 2003).

The target of one data set is T1, serotonin transporter (Rattus norvegicus, UniProt P31652).
T1 construct: displace ^3H-paroxetine from male rat frontal cortical membranes; from tissue; host or cells: male rat frontal cortex membranes
T1 sequence (P31652 whole entry): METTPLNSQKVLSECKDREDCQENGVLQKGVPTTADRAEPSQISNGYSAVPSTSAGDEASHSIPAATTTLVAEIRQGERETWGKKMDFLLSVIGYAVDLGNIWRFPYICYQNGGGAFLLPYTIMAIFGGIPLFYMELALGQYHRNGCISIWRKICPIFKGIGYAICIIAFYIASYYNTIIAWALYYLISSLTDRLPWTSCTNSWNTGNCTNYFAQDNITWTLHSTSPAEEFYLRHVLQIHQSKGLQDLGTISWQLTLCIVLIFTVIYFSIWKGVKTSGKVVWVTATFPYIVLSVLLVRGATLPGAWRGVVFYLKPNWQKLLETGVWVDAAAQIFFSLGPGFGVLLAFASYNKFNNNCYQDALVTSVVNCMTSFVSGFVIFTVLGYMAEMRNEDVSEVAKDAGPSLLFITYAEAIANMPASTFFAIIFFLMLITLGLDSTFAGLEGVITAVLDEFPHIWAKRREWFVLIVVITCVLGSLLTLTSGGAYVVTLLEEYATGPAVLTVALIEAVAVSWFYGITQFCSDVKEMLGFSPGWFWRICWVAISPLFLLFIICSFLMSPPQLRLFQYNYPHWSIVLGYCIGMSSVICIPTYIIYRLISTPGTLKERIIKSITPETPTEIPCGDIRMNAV
Put plainly: 3H-paroxetine displacement, serotonin transporter affinity. Format: binding.

A further data set deals with T2, human 5-HT1A receptors (Homo sapiens, UniProt P08908).
T2 construct: expressed in transfected cells; host or cells: CHO cells
T2 sequence (P08908 1-422): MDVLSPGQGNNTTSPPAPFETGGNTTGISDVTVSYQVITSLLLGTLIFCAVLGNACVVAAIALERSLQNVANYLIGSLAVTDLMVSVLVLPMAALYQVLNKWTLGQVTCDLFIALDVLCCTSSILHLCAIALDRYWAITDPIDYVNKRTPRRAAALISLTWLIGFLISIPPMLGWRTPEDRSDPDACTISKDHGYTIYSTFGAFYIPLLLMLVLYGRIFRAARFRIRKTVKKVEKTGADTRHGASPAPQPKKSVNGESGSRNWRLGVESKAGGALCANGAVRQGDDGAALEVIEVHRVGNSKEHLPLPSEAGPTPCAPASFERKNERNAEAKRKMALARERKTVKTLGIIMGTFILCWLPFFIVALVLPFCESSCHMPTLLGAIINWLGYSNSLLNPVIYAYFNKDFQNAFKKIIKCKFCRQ
Put plainly: [3H] 8-OHDPAT displacement, 5-HT1A receptor affinity. Format: binding. The source says: High affinity for the serotonin 5-HT1A receptor was established by testing the claimed compound's ability to displace [^3H] 8-OHDPAT (dipropylamino-tetralin) from the 5-HT1A serotonin receptor following a modification of the procedure of Hall et al., J. Neurochem. 44, 1685 (1985) which utilizes CHO cells stably transfected with human 5-HT1A receptors.

Data set [1] has as its target T3, cloned human 5-HT1A receptors (Homo sapiens, UniProt P08908).
T3 construct: expressed in transfected cells
T3 sequence (P08908 1-422): T2 sequence (P08908 1-422)
Nature of the data set: 35S-GTPγS binding assay, 5-HT1A antagonist activity. In kind it is biochemical. As to conditions: reversal of the effects of standard agonist 8-OHDPAT on 35S-GTPγS binding; for pIC50: membranes with cloned human 5-HT1A receptors, read-out: 5-HT1A Function IC50; for 5-HT1A Function Imax (maximum inhibitory effect): value in parentheses. As to the method: Antagonist activity at 5-HT1A receptors was established by using a ^35S-GTPγS binding assay similar to that used by Lazareno and Birdsall (Br. J. Pharmacol. 109: 1120, 1993), in which the test compound's ability to affect the binding of ^35S-GTPγS to membranes containing cloned human 5-HT1A receptors was determined. Agonists produce an increase in binding whereas antagonists produce no increase but rather reverse the effects of the standard agonist 8-OHDPAT. The test compound's maximum inhibitory effect is represented as the Imax, while its potency is defined by the IC50.
In general terms: GTPγS resists hydrolysis and so accumulates on activated G proteins.

Turning to `Fc1ccc2[nH]cc(C3=CCN(CC4COc5ccc6ncncc6c5O4)CC3)c2c1` (stereo not drawn) (hydrate or solvate) [Example 1, 2-[(4-(5-Fluoro-1H-indol-3-yl)-3,6-dihydropyridin-1(2H)-yl)methyl]-2,3-dihydro[1,4]dioxino[2,3-f]quinazoline], the melting point fell in the range of 233 to 235 °C.
In turn, `C1=C(c2c[nH]c3ccccc23)CCN(CC2COc3ccc4ncncc4c3O2)C1` (stereo not drawn) (hydrate or solvate) [Example 2, 2-[(4-(1H-Indol-3-yl)-3,6-dihydropyridin-1(2H)-yl)methyl]-2,3-dihydro[1,4]dioxino[2,3-f]quinazoline] returned a melting point of 204 to 207 °C.
Still for that read-out and setting: the value for `Cc1ncc2c3c(ccc2n1)OCC(CN1CC=C(c2c[nH]c4ccccc24)CC1)O3` (stereo not drawn) (hydrate or solvate) [Example 4, 2-[(4-(1H-Indol-3-yl)-3,6-dihydropyridin-1(2H)-yl)methyl]-8-methyl-2,3-dihydro[1,4]dioxino[2,3-f]quinazoline] was 198 to 202 °C.
On to `Fc1ccc2[nH]cc(C3=CCN(CC4COc5ccc6ncncc6c5O4)CC3)c2c1` (stereo not drawn) [Example 1, 2-[(4-(5-Fluoro-1H-indol-3-yl)-3,6-dihydropyridin-1(2H)-yl)methyl]-2,3-dihydro[1,4]dioxino[2,3-f]quinazoline], for which the pKi at serotonin transporter is 8.65. This molecule gave a pKi at human 5-HT1A receptors of 7.29. Also, in data set [1], the negative-log IC50 (pIC50) is 6.30 and the “5-HT1A Function Imax (maximum inhibitory effect)” value is reported as “(94.0)”.
Consider `C1=C(c2c[nH]c3ccccc23)CCN(CC2COc3ccc4ncncc4c3O2)C1` (stereo not drawn) [Example 2, 2-[(4-(1H-Indol-3-yl)-3,6-dihydropyridin-1(2H)-yl)methyl]-2,3-dihydro[1,4]dioxino[2,3-f]quinazoline], for which the pKi was 8.54 at serotonin transporter and 7.82 on human 5-HT1A receptors. Also, the pIC50 in data set [1] is 6.42. For the same molecule, the “5-HT1A Function Imax (maximum inhibitory effect)” value in data set [1] is “(100)”.
On the same counts, the results for `Cc1nc2ccc3c(c2c[n+]1[O-])OC(CN1CC=C(c2c[nH]c4ccccc24)CC1)CO3` (stereo not drawn) [Example 3, 2-[(4-(1H-Indol-3-yl)-3,6-dihydropyridin-1(2H)-yl)methyl]-8-methyl-2,3-dihydro[1,4]dioxino[2,3-f]quinazoline 9-oxide] are 8.33, 7.59, 6.36 and “(94.0)”.
On the same counts, the results for `Cc1ncc2c3c(ccc2n1)OCC(CN1CC=C(c2c[nH]c4ccccc24)CC1)O3` (stereo not drawn) [Example 4, 2-[(4-(1H-Indol-3-yl)-3,6-dihydropyridin-1(2H)-yl)methyl]-8-methyl-2,3-dihydro[1,4]dioxino[2,3-f]quinazoline] are 8.65, 8.62, 6.94 and “(100)”.
Regarding `CCc1ncc2c3c(ccc2n1)OCC(CN1CC=C(c2c[nH]c4ccccc24)CC1)O3` (stereo not drawn) [Example 5, 2-[(4-(1H-Indol-3-yl)-3,6-dihydropyridin-1(2H)-yl)methyl]-8-ethyl-2,3-dihydro[1,4]dioxino[2,3-f]quinazoline], the melting point was 203 to 211 °C. On serotonin transporter, this molecule showed a negative logarithm of the Ki (pKi) of 8.37. The same molecule gave a pKi at human 5-HT1A receptors of 8.08. Further, in data set [1], the pIC50 is 6.68 and the “5-HT1A Function Imax (maximum inhibitory effect)” value was “(100)”.
